Reference: patent publication US4663435A, “Bridged cyclic hexapeptide somatostatin analogs” (Merck & Co., Inc., priority 1985, dated 1987)
Positions of bridges follow the written chain, without caps; N, C: chain ends. Non-standard residues stand in square brackets, D forms with d. Residues, ends and D or L forms follow the SMILES beside them.

Legend:
[1] = test system: portal vein glucagon; assay: decrease of portal vein glucagon levels in anesthetized rats; assay type: in vivo, rat; settings: relative to somatostatin (=1), external jugular vein, portal vein blood after 5 minutes
Protocol: (§1) Analogs of somatostatin were compared to somatostatin in their ability to decrease the levels of portal vein glucagon and insulin in anesthetized rats. Male Sprague-Dawley rats (Charles River CD) weighing 160-200 g were anesthetized with urethane (150 mg/100 g of body weight; Aldrich). Saline or peptides were adminstered via the external jugular vein. After 5 minutes, the portal vein was exposed, and blood was collected via syringe containing 3 mg of EDTA and placed in chilled tubes containing 100 μl of Trasylol (FBA Pharmaceuticals) for subsequent hormone analysis. Plasma levels of glucagon were determined by the method of Faloona and Unger, Methods of Hormone Radioimmunoassay, Jaffe and Behrman (Eds), Academic Press, New York, Vol. II, pp. 257-527 (1976), utilizing glucagon antisera 30K obtained from R. Unger (Dallas, TX). Plasma levels of insulin were determined by a modification of the procedure of Herbert et al., J. Clin. Endocrinol. Metab., 25, 1375-1384 (1965).

[2] = stability of the isolated peptide with respect to polymerization; assay type: physicochemical
Protocol: In order to stabilize the compound toward such decomposition it was treated in aqueous solution with 10-40 mole % of N-ethylmaleimide, a reagent which will react with free sulfhydryl groups that could catalyze disulfide interchange. The excess N-ethyl maleimide was separated by passage through a column of Sephadex G-25 gel (superfine) eluted with 50% acetic acid.

[3] = test system: portal vein insulin; assay: decrease of portal vein insulin levels in anesthetized rats; assay type: in vivo, rat; settings: multiple or fraction of the effect of somatostatin (=1), fiducial limits in parentheses, external jugular vein, portal vein blood after 5 minutes
Protocol: as §1

[4] = test system: growth hormone release from rat pituitary cells; assay: in vitro test for the inhibition of growth hormone release, cultured rat pituitary cells; assay type: cell-based; settings: multiple or fraction of the effect of somatostatin (=1), fiducial limits in parentheses, 4 hours incubation
Protocol: The instant cyclic hexapeptide analogs of somatostatin are tested and compared with the effects of somatostatin in an in vitro test for the inhibition of growth hormone. The test is described as follows:
"Rat pituitaries were isolated according to the procedures of Vale and Grant `In Vitro Pituitary Hormone Secretion Assay for Hypophysiotropic Substances` in Methods in Enzymology. Vol. XXXVII, eds. O'Malley, B. W. and Hardman, J. G. (Academic Press, Inc., New York) pp. 5-93 (1975).
After 4 days in culture, the cells were washed and incubated for 4 hours in Dulbecco-modified Eagle's medium in the presence or absence of graded doses of each analog or somatostatin. The medium was then collected for subsequent growth hormone determination by a double antibody radioimmunoassay for rat growth hormone."

C[C@H](N)C(=O)NCC(=O)N[C@H]1CSSC[C@@H](C(=O)O)NC(=O)[C@H](CO)NC(=O)[C@H]([C@@H](C)O)NC(=O)[C@H](Cc2ccccc2)NC(=O)[C@H]([C@@H](C)O)NC(=O)[C@H](CCCCN)NC(=O)[C@H](Cc2c[nH]c3ccccc23)NC(=O)[C@H](Cc2ccccc2)NC(=O)[C@H](Cc2ccccc2)NC(=O)[C@H](CC(N)=O)NC(=O)[C@H](CCCCN)NC1=O [Somatostatin]
Glucagon Inhibition [1]: 1

C[C@@H](O)[C@@H]1NC(=O)[C@H](CCCCN)NC(=O)[C@@H](Cc2c[nH]c3ccccc23)NC(=O)[C@H](Cc2ccccc2)NC(=O)[C@@H]2CSSC[C@H](NC1=O)C(=O)N2 (cyclo(CCF[dW]KT); disulfide 1-2)
stability with respect to polymerization ([2]; after treatment with 10-40 mole % of N-ethylmaleimide and reisolation): completely stable
stability with respect to polymerization ([2]; sample as isolated, in certain solvents or on extended storage): unstable
Glucagon Inhibition [1]: Active
Insulin Inhibition [3]: 10.6(5.5-19.9)
Growth Hormone Release Inhibition [4]: 2.47(1.66-3.81)
